Source: PubChem BioAssay AID1963446 (Molecular Pharmacology Branch, DTP, NCI, 2024)

Tested on: 993429-296-R-J1-PDC complex spheroid growth, percent test/control
Assay: Anticancer human tumor 993429-296-R-J1-PDC patient-derived uterine sarcoma cell line growth inhibition [Asc]
Conditions: for IC50: curve of first compound; for viability, T/C: stronger effect = lower value
In short: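 Complex spheroids combining tumor cells with HUVEC endothelial cells and human MSCs, at 37 degrees C, 5% CO2; agents tested alone or combined, half-log dilutions from at or near clinical Cmax, or 10 microM if Cmax unknown.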

[1] = second compound 0.03 µM, first compound 0.0316 µM
[2] = second compound 0.03 µM, first compound 0.1 µM
[3] = second compound 0.0949 µM, first compound 0.0316 µM
[4] = second compound 0.0949 µM, first compound 0.1 µM
[5] = second compound 0.3 µM, first compound 0.0316 µM
[6] = second compound 0.3 µM, first compound 0.1 µM
[7] = second compound 0.949 µM, first compound 0.0316 µM
[8] = second compound 0.949 µM, first compound 0.1 µM
[9] = second compound 3 µM, first compound 0.0316 µM
[10] = second compound 3 µM, first compound 0.1 µM
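Note: spheroids exposed to compounds for seven days.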

## Cn1ncnc1[C@H]1c2n[nH]c(=O)c3cc(F)cc(c23)N[C@@H]1c1ccc(F)cc1 + CCN1C(C(=O)NC23CCC(C(=O)O)(CC2)CC3)C(c2cccc(Cl)c2F)C2(C(=O)Nc3cc(Cl)ccc32)C12CCCCC2
Second compound 0.03 µM
  IC50: > 0.1 µM
Second compound 0.0949 µM
  IC50: 0.0758 µM
Second compound 0.3 µM
  IC50: 0.0653 µM
Second compound 0.949 µM
  IC50: > 0.1 µM
Second compound 3 µM
  IC50: 0.0662 µM
Second compound 0.03 µM, first compound 0.000316 µM
  viability, T/C: 114%
Second compound 0.03 µM, first compound 0.001 µM
  viability, T/C: 107%
Second compound 0.03 µM, first compound 0.00316 µM
  viability, T/C: 104%
Second compound 0.03 µM, first compound 0.01 µM
  viability, T/C: 62%
[1]
  viability, T/C: 62%
[2]
  viability, T/C: 45.1%
Second compound 0.0949 µM, first compound 0.000316 µM
  viability, T/C: 94%
Second compound 0.0949 µM, first compound 0.001 µM
  viability, T/C: 102%
Second compound 0.0949 µM, first compound 0.00316 µM
  viability, T/C: 89.4%
Second compound 0.0949 µM, first compound 0.01 µM
  viability, T/C: 73.6%
[3]
  viability, T/C: 64.6%
[4]
  viability, T/C: 45.4%
Second compound 0.3 µM, first compound 0.000316 µM
  viability, T/C: 96.5%
Second compound 0.3 µM, first compound 0.001 µM
  viability, T/C: 104%
Second compound 0.3 µM, first compound 0.00316 µM
  viability, T/C: 90.6%
Second compound 0.3 µM, first compound 0.01 µM
  viability, T/C: 77.3%
[5]
  viability, T/C: 66%
[6]
  viability, T/C: 41.4%
Second compound 0.949 µM, first compound 0.000316 µM
  viability, T/C: 109%
Second compound 0.949 µM, first compound 0.001 µM
  viability, T/C: 101%
Second compound 0.949 µM, first compound 0.00316 µM
  viability, T/C: 92.3%
Second compound 0.949 µM, first compound 0.01 µM
  viability, T/C: 65.1%
[7]
  viability, T/C: 59.9%
[8]
  viability, T/C: 48%
Second compound 3 µM, first compound 0.000316 µM
  viability, T/C: 91.5%
Second compound 3 µM, first compound 0.001 µM
  viability, T/C: 91.8%
Second compound 3 µM, first compound 0.00316 µM
  viability, T/C: 82.8%
Second compound 3 µM, first compound 0.01 µM
  viability, T/C: 72.5%
[9]
  viability, T/C: 61.5%
[10]
  viability, T/C: 43.9%

## O=C(c1cc(Cc2n[nH]c(=O)c3ccccc23)ccc1F)N1CCN(C(=O)C2CC2)CC1 + CCN1C(C(=O)NC23CCC(C(=O)O)(CC2)CC3)C(c2cccc(Cl)c2F)C2(C(=O)Nc3cc(Cl)ccc32)C12CCCCC2
Second compound 0.03 µM
  IC50: 6.36 µM
Second compound 0.0949 µM
  IC50: 4.84 µM
Second compound 0.3 µM
  IC50: 6.87 µM
Second compound 0.949 µM
  IC50: 4.9 µM
Second compound 3 µM
  IC50: 3.04 µM
[1]
  viability, T/C: 87.8%
[2]
  viability, T/C: 104%
Second compound 0.03 µM, first compound 0.316 µM
  viability, T/C: 98%
Second compound 0.03 µM, first compound 1 µM
  viability, T/C: 100%
Second compound 0.03 µM, first compound 3.16 µM
  viability, T/C: 66.3%
Second compound 0.03 µM, first compound 10 µM
  viability, T/C: 39.5%
[3]
  viability, T/C: 109%
[4]
  viability, T/C: 106%
Second compound 0.0949 µM, first compound 0.316 µM
  viability, T/C: 87.9%
Second compound 0.0949 µM, first compound 1 µM
  viability, T/C: 113%
Second compound 0.0949 µM, first compound 3.16 µM
  viability, T/C: 61.9%
Second compound 0.0949 µM, first compound 10 µM
  viability, T/C: 29.6%
[5]
  viability, T/C: 92%
[6]
  viability, T/C: 100%
Second compound 0.3 µM, first compound 0.316 µM
  viability, T/C: 99.7%
Second compound 0.3 µM, first compound 1 µM
  viability, T/C: 78.6%
Second compound 0.3 µM, first compound 3.16 µM
  viability, T/C: 76.1%
Second compound 0.3 µM, first compound 10 µM
  viability, T/C: 38.5%
[7]
  viability, T/C: 100%
[8]
  viability, T/C: 113%
Second compound 0.949 µM, first compound 0.316 µM
  viability, T/C: 88.8%
Second compound 0.949 µM, first compound 1 µM
  viability, T/C: 81%
Second compound 0.949 µM, first compound 3.16 µM
  viability, T/C: 62.2%
Second compound 0.949 µM, first compound 10 µM
  viability, T/C: 32.1%
[9]
  viability, T/C: 96.6%
[10]
  viability, T/C: 90.3%
Second compound 3 µM, first compound 0.316 µM
  viability, T/C: 78.4%
Second compound 3 µM, first compound 1 µM
  viability, T/C: 83.1%
Second compound 3 µM, first compound 3.16 µM
  viability, T/C: 48.3%
Second compound 3 µM, first compound 10 µM
  viability, T/C: 33.1%
